Experimental data: patent publication US20180228720A1, “MELANOGENESIS INHIBITOR” (TAKASAGO INTERNATIONAL CORPORATION, priority 2015, published 2018)
Values belong to the compound of their own block, whether it stands above or below them.

What was measured:
[1] = test system: melanin production; details: background art, Patent Documents 2 to 4; cited from earlier work
[2] = test system: B-16 melanoma cells; test: Evaluation for melanin production-inhibitory activity against pigment cells; assay type: cell-based; details: cultured 4 days with sample, relative to negative control
Procedure: With respect to the components (compounds) of Examples 1 to 3 and Reference Example 1 shown in Table 1, the following test was performed, thereby studying the evaluation for melanin production-inhibitory activity.
In a plastic culture flask (25 cm^2), B-16 melanoma cells in a number of 1×10^5 were seeded and cultured in a 10% serum-containing DMEM medium (manufactured by Nippon Suisan Kaisha, Ltd.) in the presence of 5% carbon dioxide at 37° C. One day after the culture, an evaluation sample diluted with ethanol was added, and the cells were further cultured for 4 days. After completion of the culture, the medium was removed, and the cells were rinsed with PBS (phosphate buffer solution). Thereafter, the cells were detached from the plate by using a medium containing trypsin and EDTA (ethylenediaminetetraacetic acid) and harvested by means of centrifugation. The resulting cells were rinsed three times with 1 mL of 5% trichloroacetic acid controlled at 4° C., rinsed twice with 1 mL of an ethanol/diethyl ether (3/1) solution, and then rinsed once with 1 mL of diethyl ether. After drying, 1 mL of 2N sodium hydroxide was added to dissolve the cells at 60° C. After allowing the solution to stand for cooling, an absorbance at 415 nm was measured, thereby measuring the amount of melanin. Each measured value was calculated as a relative value (%) relative to a value of a negative control in which the evaluation sample was not exposed. The evaluation was performed by three times repetition.

[3] = test system: melanocyte-containing human three-dimensional cultured epidermal model, LabCyte MELANO-MODEL 24; test: Skin-whitening activity using melanocyte-containing human three-dimensional cultured epidermal tissue (amount of melanin, number of living cells by MTT); assay type: cell-based; details: sample 0.10% (positive control), 2 weeks culture, relative to negative control
Procedure: A melanocyte-containing human three-dimensional cultured epidermal model, LabCyte […]-MODEL 24 (manufactured by Japan Tissue Engineering Co., Ltd.) was cultured in accordance with an instruction manual. That is, a culture cup having a human cultured epidermis charged therein was soaked in 1.5 mL of an improved melanin production-promoting medium, and an evaluation sample was added in the cup and exposed, followed by culture at 37° C. for 2 weeks in the presence of 5% carbon dioxide. The medium and the evaluation sample were exchanged once every two to three days. After completion of the culture, the number of living cells and the amount of melanin were measured according to the MTT assay by a method described in the instruction manual. Each measured value was calculated as a relative value (%) relative to a value of a negative control in which the evaluation sample was not exposed. The evaluation was performed by three times repetition.

Structure (SMILES): C[C@@H]1CC[C@H]2C(C)(C)[C@H]3C[C@@]12CC[C@@]3(C)O [cedrol]
Effect on melanin production (in words) [1]: exhibits a melanin production-inhibitory effect

Structure (SMILES): C=CC(C)(O)CCC=C(C)CCC=C(C)C (stereo not shown) [nerolidol]
Effect on melanin production (in words) [1]: exhibits a melanin production-inhibitory effect

Structure (SMILES): OC[C@H]1O[C@@H](Oc2ccc(O)cc2)[C@H](O)[C@@H](O)[C@@H]1O [Arbutin]
Melanin inhibition ratio (%) ([2]; 3.13 μg/mL): 39%
Melanin inhibition ratio (%) ([2]; 6.25 μg/mL): 50%
Melanin inhibition ratio (%) ([2]; 12.5 μg/mL): 71%

Number of living cells (%) ([3]; MTT assay): 92.3 ± 8.8%
Structure (SMILES): O=c1cc(CO)occ1O [Kojic acid]
Amount of melanin (%) [3]: 48.4 ± 4.0%
